From PubChem BioAssay (NCI)
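Step 1: Grow cells in 96-well plates. Step 2: Expose to compound for 48 hours at 5 concentrations. Step 3: Interpolate endpoints linearly; if unreached, use highest concentration. GI50: concentration for 50% inhibition of growth. TGI is the concentration that stops growth completely.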

Key:
Assay in all cases: growth of human tumour cells (NCI), 48 h
SN12C renal = test system: SN12C renal
MCF7 breast = test system: MCF7 breast
MDA-MB-435 = test system: MDA-MB-435
UACC-62 melanoma = test system: UACC-62 melanoma
SNB-19 CNS = test system: SNB-19 CNS
HOP-92 NSCLC = test system: HOP-92 NSCLC
HCC-2998 colon = test system: HCC-2998 colon
OVCAR-4 ovarian = test system: OVCAR-4 ovarian
A549 NSCLC = test system: A549 NSCLC
IGROV1 ovarian = test system: IGROV1 ovarian

OCC1OC(n2cnc3cccnc32)CC1O (stereo not given)
TGI (SN12C renal): > 100 µM | TGI (MCF7 breast): > 100 µM | TGI (MDA-MB-435): > 100 µM | TGI (UACC-62 melanoma): > 100 µM | TGI (SNB-19 CNS): > 100 µM | TGI (HOP-92 NSCLC): > 100 µM | TGI (HCC-2998 colon): > 100 µM | TGI (OVCAR-4 ovarian): > 100 µM | TGI (A549 NSCLC): > 100 µM | TGI (IGROV1 ovarian): > 100 µM

N#Cc1c(NC(=O)c2ccccc2)sc2c1CCC(=O)C2
GI50 (SN12C renal): 1.16 µM | TGI (SN12C renal): 7.51 µM | GI50 (MCF7 breast): 0.64 µM | TGI (MCF7 breast): 7.83 µM | GI50 (MDA-MB-435): 0.594 µM | TGI (MDA-MB-435): 3.6 µM | GI50 (UACC-62 melanoma): 0.404 µM | TGI (UACC-62 melanoma): 1.93 µM | GI50 (SNB-19 CNS): 3.48 µM | TGI (SNB-19 CNS): > 100 µM | GI50 (HOP-92 NSCLC): 0.821 µM | TGI (HOP-92 NSCLC): 2.72 µM | GI50 (HCC-2998 colon): 1.82 µM | TGI (HCC-2998 colon): 10.3 µM | GI50 (OVCAR-4 ovarian): 0.806 µM | TGI (OVCAR-4 ovarian): 2.49 µM | GI50 (A549 NSCLC): 6.7 µM | TGI (A549 NSCLC): > 100 µM | GI50 (IGROV1 ovarian): 1.59 µM | TGI (IGROV1 ovarian): 11 µM

NC(N)=N/N=C/c1c(-c2ccc([N+](=O)[O-])cc2)nc2sccn12
TGI (SN12C renal): 3.2 µM | TGI (MCF7 breast): 2.62 µM | TGI (MDA-MB-435): 2.87 µM | TGI (UACC-62 melanoma): 3.22 µM | TGI (SNB-19 CNS): 2.74 µM | TGI (HOP-92 NSCLC): 3.52 µM | TGI (HCC-2998 colon): 2.73 µM | TGI (OVCAR-4 ovarian): 2.97 µM | TGI (A549 NSCLC): 3.34 µM | TGI (IGROV1 ovarian): 36.4 µM

CC(CCC(=O)O)[C@H]1CCC2[C@H]3C(CC[C@@]21C)[C@@]1(C)CCC(O)C[C@H]1C[C@@H]3O (stereo not given in full)
TGI (SN12C renal): > 100 µM | TGI (MCF7 breast): > 100 µM | TGI (MDA-MB-435): > 100 µM | TGI (UACC-62 melanoma): > 100 µM | TGI (SNB-19 CNS): > 100 µM | TGI (HOP-92 NSCLC): > 100 µM | TGI (HCC-2998 colon): > 100 µM | TGI (OVCAR-4 ovarian): > 100 µM | TGI (A549 NSCLC): > 100 µM | TGI (IGROV1 ovarian): > 100 µM

Cc1cc(C)c(S(=O)(=O)N(CCCCN)OCCCN)c(C)c1
TGI (SN12C renal): 34.4 µM | TGI (MCF7 breast): 35.3 µM | TGI (MDA-MB-435): 30.7 µM | TGI (UACC-62 melanoma): 30.7 µM | TGI (SNB-19 CNS): 34.5 µM | TGI (HOP-92 NSCLC): 34.5 µM | TGI (HCC-2998 colon): 5.59 µM | TGI (OVCAR-4 ovarian): 32.3 µM | TGI (A549 NSCLC): 36.1 µM | TGI (IGROV1 ovarian): 29.4 µM

C=CCC(CNC(=O)OCc1ccccc1)O[Si](C)(C)C(C)(C)C (stereo not given)
TGI (SN12C renal): > 100 µM | TGI (MCF7 breast): 57.7 µM | TGI (MDA-MB-435): > 100 µM | TGI (UACC-62 melanoma): > 100 µM | TGI (SNB-19 CNS): > 100 µM | TGI (HOP-92 NSCLC): > 100 µM | TGI (HCC-2998 colon): > 100 µM | TGI (OVCAR-4 ovarian): > 100 µM | TGI (A549 NSCLC): > 100 µM | TGI (IGROV1 ovarian): 84.3 µM

Cc1cc(S(=O)(=O)Nc2nnc3c(C(F)(F)F)cc(Cl)cn23)c(S)cc1Cl
TGI (SN12C renal): > 100 µM | TGI (MCF7 breast): > 100 µM | TGI (MDA-MB-435): > 100 µM | TGI (UACC-62 melanoma): > 100 µM | TGI (SNB-19 CNS): > 100 µM | TGI (HOP-92 NSCLC): > 100 µM | TGI (HCC-2998 colon): > 100 µM | TGI (OVCAR-4 ovarian): > 100 µM | TGI (A549 NSCLC): > 100 µM | TGI (IGROV1 ovarian): > 100 µM

O=C(O)C(CCc1ccccn1)c1ccccc1 (stereo not given)
TGI (SN12C renal): > 100 µM | TGI (MCF7 breast): > 100 µM | TGI (MDA-MB-435): > 100 µM | TGI (UACC-62 melanoma): > 100 µM | TGI (SNB-19 CNS): > 100 µM | TGI (HOP-92 NSCLC): > 100 µM | TGI (HCC-2998 colon): > 100 µM | TGI (OVCAR-4 ovarian): > 100 µM | TGI (A549 NSCLC): > 100 µM | TGI (IGROV1 ovarian): > 100 µM

CC(C)CCC[C@@H](C)[C@H]1CC[C@H]2[C@@H]3CC=C4C[C@@H](OC(=O)c5cccc6c(=O)c7ccccc7[nH]c56)CC[C@]4(C)[C@H]3CC[C@]12C
TGI (SN12C renal): > 75 µM | TGI (MCF7 breast): > 75 µM | TGI (MDA-MB-435): > 75 µM | TGI (UACC-62 melanoma): > 75 µM | TGI (SNB-19 CNS): > 75 µM | TGI (HOP-92 NSCLC): > 75 µM | TGI (HCC-2998 colon): > 75 µM | TGI (OVCAR-4 ovarian): > 75 µM | TGI (A549 NSCLC): > 75 µM | TGI (IGROV1 ovarian): > 75 µM

Cc1csc2c1C(=O)c1ccsc1C2=O
TGI (SN12C renal): 4.83 µM | TGI (MCF7 breast): 2.98 µM | TGI (MDA-MB-435): 0.447 µM | TGI (UACC-62 melanoma): 3.07 µM | TGI (SNB-19 CNS): 9.98 µM | TGI (HOP-92 NSCLC): 12.5 µM | TGI (HCC-2998 colon): 14.6 µM | TGI (OVCAR-4 ovarian): 3.34 µM | TGI (A549 NSCLC): 3.55 µM | TGI (IGROV1 ovarian): 11.8 µM

CC[C@]12C=CCN3CCC4(c5cc(N=Nc6ccccc6)c(OC)cc5N(C)[C@H]4[C@@](O)(C(=O)OC)[C@@H]1OC(C)=O)[C@@H]32 (stereo not given in full)
TGI (SN12C renal): 35.7 µM | TGI (MCF7 breast): 34.4 µM | TGI (MDA-MB-435): 37.9 µM | TGI (UACC-62 melanoma): 29.4 µM | TGI (SNB-19 CNS): 47.2 µM | TGI (HOP-92 NSCLC): 30.2 µM | TGI (HCC-2998 colon): 36.3 µM | TGI (OVCAR-4 ovarian): 38.8 µM | TGI (A549 NSCLC): 40.9 µM | TGI (IGROV1 ovarian): 32.5 µM

O=C(C1=C(C(=O)c2ccccc2)SC2(S1)C(C(=O)c1ccccc1)=C(C(=O)c1ccccc1)Sc1c2ssc1=O)c1ccccc1
TGI (SN12C renal): > 100 µM | TGI (MCF7 breast): > 100 µM | TGI (MDA-MB-435): > 100 µM | TGI (UACC-62 melanoma): 44.9 µM | TGI (SNB-19 CNS): 66.5 µM | TGI (HOP-92 NSCLC): > 100 µM | TGI (HCC-2998 colon): > 100 µM | TGI (OVCAR-4 ovarian): > 100 µM | TGI (A549 NSCLC): > 100 µM | TGI (IGROV1 ovarian): > 100 µM

CC(=O)N(CN1C(=O)CCC1C(=O)O)c1ccccc1 (stereo not given)
TGI (SN12C renal): > 100 µM | TGI (MCF7 breast): > 100 µM | TGI (MDA-MB-435): > 100 µM | TGI (UACC-62 melanoma): > 100 µM | TGI (SNB-19 CNS): > 100 µM | TGI (HOP-92 NSCLC): > 100 µM | TGI (HCC-2998 colon): > 100 µM | TGI (OVCAR-4 ovarian): > 100 µM | TGI (A549 NSCLC): > 100 µM | TGI (IGROV1 ovarian): > 100 µM

CC(=O)NC1C(CO)O[C@@H]2OC(C)(C)O[C@H]12 (stereo not given in full)
TGI (SN12C renal): > 100 µM | TGI (MCF7 breast): > 100 µM | TGI (MDA-MB-435): > 100 µM | TGI (UACC-62 melanoma): > 100 µM | TGI (SNB-19 CNS): > 100 µM | TGI (HOP-92 NSCLC): > 100 µM | TGI (HCC-2998 colon): > 100 µM | TGI (OVCAR-4 ovarian): > 100 µM | TGI (A549 NSCLC): > 100 µM | TGI (IGROV1 ovarian): > 100 µM

CCCCC[C@@H]1OCO[C@@]2(C)/C=C(C)/C=C/C(=O)O[C@H]([C@@H](C)[C@@H](O)[C@H](C)[C@@]3(O)C[C@@H](O[C@H]4C[C@@H](O)[C@H](O)[C@@H](C)O4)[C@H](C)[C@@H](C)O3)[C@@H](OC)/C=C/C=C(\C)C[C@@H]1[C@@H]2O (stereo in doubt)
TGI (SN12C renal): 3.49 µM | TGI (MCF7 breast): 3.32 µM | TGI (MDA-MB-435): 0.541 µM | TGI (UACC-62 melanoma): < 0.005 µM | TGI (SNB-19 CNS): 7.78 µM | TGI (HOP-92 NSCLC): 0.0992 µM | TGI (HCC-2998 colon): 0.745 µM | TGI (OVCAR-4 ovarian): 8.38 µM | TGI (A549 NSCLC): 0.733 µM | TGI (IGROV1 ovarian): 8.22 µM
